# Biological target: T1, Gonadotropin-releasing hormone receptor (Rattus norvegicus, UniProt P30969)
# T1 sequence (P30969 whole entry): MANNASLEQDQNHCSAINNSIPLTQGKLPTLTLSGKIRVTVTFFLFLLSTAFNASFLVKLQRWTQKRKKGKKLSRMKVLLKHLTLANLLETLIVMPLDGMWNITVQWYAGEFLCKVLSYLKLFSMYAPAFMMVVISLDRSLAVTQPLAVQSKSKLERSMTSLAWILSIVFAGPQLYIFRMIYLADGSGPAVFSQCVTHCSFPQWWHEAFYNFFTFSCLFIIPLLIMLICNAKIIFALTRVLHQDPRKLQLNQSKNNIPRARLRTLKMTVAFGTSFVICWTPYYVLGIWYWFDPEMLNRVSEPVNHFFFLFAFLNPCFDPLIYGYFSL
# Assay: Binding affinity for Gonadotropin-releasing hormone receptor in rat pituitary membrane at 10 buserelin as radioligand; call rule not given here
# Assay type: cell membranes
row,IC50,SMILES
1,25 nM,Cc1cc(C)cc(-c2c(O)nc3cc(Cl)c([N+](=O)[O-])cc3c2OCC[C@@H]2CCN2)c1
2,10 nM,Cc1cc(C)cc(-c2c(O)nc3cc(Cl)c([N+](=O)[O-])cc3c2OCC[C@@H]2CCCCN2)c1
3,100 nM,Cc1cc(C)cc(-c2c(O)nc3cc(Cl)c([N+](=O)[O-])cc3c2OCC[C@H]2CCCN2)c1
4,150 nM,Cc1cc(C)cc(-c2c(O)nc3cc(Cl)c([N+](=O)[O-])cc3c2OCC[C@H]2CCCCN2)c1
5,15 nM,Cc1cc(C)cc(-c2c(O)nc3cc(Cl)c([N+](=O)[O-])cc3c2OCC[C@@H]2CCCN2)c1

# The next lines start with the molecule.
row,SMILES,IC50
1,Cc1cc(C)cc(-c2c(O)nc3cc(Cl)c([N+](=O)[O-])cc3c2OCC[C@@H]2CCCCN2C)c1,20 nM
2,Cc1cc(C)cc(-c2c(OCC3CCCNC3)c3cc([N+](=O)[O-])c(Cl)cc3[nH]c2=O)c1 (stereo unspecified),36 nM
3,Cc1cc(C)cc(-c2c(O)nc3cc(Cl)c([N+](=O)[O-])cc3c2OCC[C@H]2CCCCN2C)c1,85 nM
4,Cc1cc(C)cc(-c2c(O)nc3cc(Cl)c([N+](=O)[O-])cc3c2OCCCC2CCCCN2)c1 (stereo unspecified),1420 nM
5,Cc1cc(C)cc(-c2c(OCCC3CCCCCN3)c3cc([N+](=O)[O-])c(Cl)cc3[nH]c2=O)c1 (stereo unspecified),36 nM

# Biological target: T1, Gonadotropin-releasing hormone receptor
# Assay: Binding affinity for Gonadotropin-releasing hormone receptor in rat pituitary membrane at 10 buserelin as radioligand; NA is not active
# Assay type: cell membranes
row,IC50,SMILES
1,Not Active,Cc1cc(C)cc(-c2c(O)nc3cc(Cl)c([N+](=O)[O-])cc3c2OCCc2ccccn2)c1

# Source: ChEMBL document CHEMBL1131972, “Investigation of the 4-O-alkylamine substituent of non-peptide quinolone GnRH receptor antagonists” (Bioorg Med Chem Lett, 1999)
